According to the NIST ThermoML archive (doi:10.1016/j.jct.2016.01.006):
Several values for one entry are separate records, joined by “and”; a condition that tells them apart may be missing. Equal values may be shown once.

Conditions: Crystal, Calculated from knudsen effusion weight loss

CCOC(=O)c1cc2ccccc2[nH]1 [ethyl 1H-indole-2-carboxylate]
Conditions	vapor or sublimation pressure
326.18 K	7.9e-05 kPa and 7.4e-05 kPa
328.21 K	0.000101 kPa and 9.8e-05 kPa and 9.1e-05 kPa
330.12 K	0.000123 kPa and 0.000122 kPa and 0.000126 kPa
332.18 K	0.000155 kPa and 0.000154 kPa and 0.000157 kPa
334.22 K	0.000202 kPa and 0.000196 kPa and 0.000203 kPa
336.12 K	0.000256 kPa and 0.000249 kPa and 0.000248 kPa
338.18 K	0.000312 kPa and 0.000322 kPa
340.21 K	0.000399 kPa and 0.000394 kPa and 0.00041 kPa
342.12 K	0.000501 kPa and 0.000503 kPa and 0.000504 kPa
344.16 K	0.000627 kPa and 0.000614 kPa and 0.000659 kPa
346.18 K	0.000808 kPa and 0.000835 kPa and 0.000768 kPa
348.11 K	0.000988 kPa and 0.000995 kPa and 0.000981 kPa

COC(=O)c1c[nH]c2ccccc12 [methyl 1H-indole-3-carboxylate]
Conditions	vapor or sublimation pressure
353.17 K	0.000108 kPa and 9.8e-05 kPa and 9.7e-05 kPa
355.12 K	0.00013 kPa and 0.000127 kPa and 0.000122 kPa
357.1 K	0.000154 kPa and 0.000153 kPa and 0.000148 kPa
359.16 K	0.000179 kPa and 0.000181 kPa and 0.000189 kPa
361.11 K	0.000232 kPa and 0.000226 kPa and 0.000234 kPa
363.1 K	0.000283 kPa and 0.000285 kPa and 0.000284 kPa
365.16 K	0.000351 kPa and 0.000347 kPa and 0.000371 kPa
367.12 K	0.000439 kPa and 0.000427 kPa and 0.000452 kPa
369.1 K	0.000528 kPa and 0.000531 kPa and 0.000514 kPa
371.16 K	0.000637 kPa and 0.000644 kPa and 0.000707 kPa
373.09 K	0.000799 kPa and 0.000822 kPa and 0.000792 kPa
375.09 K	0.00096 kPa and 0.000992 kPa and 0.000977 kPa
